Results on 67 compounds are retold here after PubChem BioAssay AID1508591.

The structures appear in SMILES notation. Some results are limits rather than exact numbers.

For the data set the following is noted: rat; liver microsomes; pH 7.4; 15.0 min; 1.0 µM.
As to `O=[S+]([O-])(Nc1nccs1)c1ccc(NCc2cc(F)cc(Cl)c2O)cc1`, the half-life (in general, the time in which the quantity being followed falls by half) is above 30 min. Next, `Nc1nc(N)c2cc(Sc3ccc4ccccc4c3)ccc2n1`: above 30 min. `Cc1ccc(NC(=O)NCC2CCN(Cc3cccc(Cl)c3)CC2)cc1Cl` registered a half-life of 14.1 min. The value for `COc1ccc(NC(=O)C23CC4CC(CC(C4)C2)C3)cc1[S+](=O)([O-])Nc1ccc(Br)cc1` was 5 min; that for `CC1CC(C)(C)N(C(=O)CN2C(=O)c3ccccc3C2=O)c2ccccc21` (configuration not stated) was 1.56 min; that for `COc1ccc(-c2ccc3nc(-c4ccccc4C)oc3c2)c(OC)c1OC` was above 30 min. Take `NC(=O)C1CCN(c2ncc(-c3ccc(Cl)cc3)s2)CC1`: the half-life was 5.97 min. `CCOc1ccc(NC(=O)c2cccc(-n3cccc3)c2)cc1S(=O)(=O)N1CCOCC1` returned a half-life of 3.16 min. This half-life is about 1.9-fold lower than that of the compound before. `O=C(Cn1ccn2nc3c(c2c1=O)CCCCC3)Nc1ccc2c(c1)OCO2` displayed a half-life of 6.81 min. Next, `NC(=O)C1CCN(c2nc(-c3ccc(N)cc3)cs2)CC1`: above 30 min. Turning to `Cc1cc(C)c(CNC(=O)c2nc(-c3ccc(F)cc3)cc3c2ccn3C(C)C)c(=O)[nH]1`, the half-life came out at 7.89 min.

Take `NC(=O)C1CCN(c2nc(-c3ccc4c(c3)OCCO4)cs2)CC1`: the half-life was determined as 3.09 min. Regarding `CCCCn1cnc2cc(NC(=O)c3cc(OC)c(OC)c(OC)c3)ccc21`, the half-life was above 30 min. In the case of `CNc1nc2c(s1)C(c1ccccc1F)CC(=O)N2` (configuration not stated), the half-life came out at 3.51 min. `FC(F)(F)c1cccc(Sc2nc(-c3ccccc3)nnc2C(F)(F)F)c1` returned a half-life of 11 min. This half-life lies about 3.1-fold higher than the previous one.

Turning to `O=c1[nH]cnc2c1ccn2C1OC(CO)C(O)C1O` (configuration not stated), the half-life is above 30 min. `Cc1ccc(-c2cc(C(=O)Nc3ccc(-n4cccn4)cc3)c3ccccc3n2)cc1C`: the half-life is 9.1 min. On to `O=C(Cc1nc2ccc(Cl)cc2[nH]1)Nc1ccc(S(=O)(=O)Nc2nccs2)cc1`, for which the half-life was above 30 min. As for `O=C(Nc1nc(-c2ccccn2)cs1)c1cccc(-n2cnnn2)c1`, the half-life was above 30 min.

As for `Cc1ccc(O)c(-c2cc(-c3ccccc3C)[nH]n2)c1`, the half-life was 24.4 min. The compound `CCN1CCN(CCCOc2ccc(-c3ccccc3)cc2)CC1` showed a half-life of 7.9 min.

`COc1ccc(CN(C2CCCCC2C)S(=O)(=O)c2ccc(S(=O)(=O)N(C)C)cc2)cc1OC` (configuration not stated): the half-life came out at 1.6 min.

`NC(=O)C1CCN(c2ncc(-c3ccc(Br)cc3)s2)CC1` returned a half-life of 3.6 min. `O=C1Nc2ccccc2C12CC2c1cc(Cl)c(O)c(Cl)c1` (configuration not stated) gave a half-life of 9.8 min. Next, `O=C(NCCc1ccccn1)C1CC(=O)N(c2n[nH]c3cc(Br)ccc23)C1` (configuration not stated): 29.7 min; `COc1ccc(NC(=O)c2c(C)cccc2C)cc1S(=O)(=O)Nc1ccc(Br)cc1`: 5.2 min; `CC(C)NC(=O)N1C[C@@H]2C[C@H](C1)c1ccc(-c3cccc(C(F)(F)F)c3)c(=O)n1C2`: 12.5 min. With `COc1cccc(CNc2ccc(S(=O)(=O)Nc3ccc(-c4ccccc4)cc3)cc2)c1O`, the half-life worked out at 2.7 min. Compared with the last compound, the half-life is about 4.6-fold lower. `CNC(=O)c1cc(Oc2ccc(NC(=O)Nc3cc(C(C)(C)C)nn3-c3ccc4ncccc4c3)c(F)c2)ccn1` displayed a half-life of 6.64 min. Against the preceding compound, the half-life is about 2.5-fold higher. The value for `CCC1=Nc2cc(C(=O)NC3CCCC3)ccc2Sc2ccc(Cl)cc21` was 1.61 min; that for `Cc1ccc(C)c(SC2=NS(=O)(=O)c3ccccc32)c1` was 1.21 min; that for `OCCN1CCN(CCCN2c3ccccc3Sc3ccc(Cl)cc32)CC1` was 4.34 min. In turn, `CCOc1ccc(CCN(C)C(=O)c2cc3sccc3n2Cc2ccccc2)cc1OCC` came in with a half-life of 1.7 min. Compared with the last compound, the half-life is about 2.6-fold lower. Take `CCN1CCCC1CNCc1ccccc1` (configuration not stated): the half-life stood at 2.5 min. Consider `CCCCn1cc2c(c1-c1ccc(Br)cc1)c(=O)n(C)c(=O)n2C`, for which the half-life is 7.68 min. For the compound `Cc1ccc(-c2ccc(CNc3nc(-c4ccccc4C(C)C)ncc3C)cc2)cn1`, the half-life turned out to be 4.28 min. In turn, `O=C(Nc1ncc(Cc2ccc(C(F)(F)F)cc2)s1)c1ccc(-c2ccccc2[N+](=O)[O-])o1` displayed a half-life above 30 min. Take `NC(=O)COc1cccc(C2CC(=O)Nc3nc(N4CCCCC4)sc32)c1` (configuration not stated): the half-life was 5.1 min. `O=C(c1csnn1)N1CCC2(CCCN(C(c3ccccc3)c3ccccc3)C2)CC1` returned a half-life of 2.1 min.

In turn, `COc1cccc(OC)c1C(=O)Nc1ccccc1C(=O)Nc1cccc(C(F)(F)F)c1` showed a half-life of 3.11 min. The half-life values of the last two compounds are within 1.5-fold of each other. Regarding `CC(C)(C)OC(=O)N1CCN(c2ccc(NCc3ccc(-c4ccc(C#N)cc4)o3)cc2)CC1`, the half-life came to 3.62 min.

As to `CC(C)CS(=O)(=O)c1oc(-c2ccc(F)cc2)nc1S(=O)(=O)c1ccccc1`, the half-life was determined as 1.18 min. The compound `O=C1CN(C(=O)CCC(=O)N2CCc3c(nc4cc(-c5ccccc5)[nH]n4c3=O)C2)c2ccccc2N1` registered a half-life above 30 min. `COc1ccc(-n2nc(C3CCCN(C(=O)c4ccccc4)C3)[nH]c2=O)cc1` (configuration not stated) showed a half-life above 30 min.

The compound `O=C(Nc1cccc(F)c1)c1cc(-c2ccc[nH]2)n[nH]1` gave a half-life of 9.45 min.

In turn, `Cc1cccc(-n2ccc(=O)c(C(=O)Nc3ccc(S(=O)(=O)Nc4nccs4)cc3)n2)c1` returned a half-life above 30 min. The compound `C=Cc1ccc(C(=O)N2CCCC(CCC(=O)N3CCN(c4ccccn4)CC3)C2)cc1` (configuration not stated) had a half-life of 1.5 min. The value for `O=C(c1ccc2c(c1)ncn2-c1ccccc1)N1CCCCC1` was 16 min; that for `Cn1c(CN2CCCCC2)nc2cc(NC(=O)c3cccc(Br)c3)ccc21` was above 30 min; that for `CC(=O)c1ccc(N2CCN(S(=O)(=O)c3ccc4c(c3)n(C)c(=O)n4C)CC2)cc1` was above 30 min. For `Nc1c(C(=O)Nc2ccc(F)cc2)sc2nc(-c3cccs3)cc(C(F)(F)F)c12`, the half-life is above 30 min. The compound `COc1ccc(-c2cc(-c3cccc(NC(C)=O)c3)cn3cncc23)cn1` returned a half-life of 15.7 min. The value for `Cn1c2ccccc2c2c3c(c4c5ccccc5n(CCC#N)c4c21)CNC3=O` was 4.29 min; that for `Nc1ncnc2c1C(=O)N(c1ccc(C3CCC(CC(=O)O)CC3)cc1)CCO2` (configuration not stated) was above 30 min. As for `Cc1ccc(S(=O)(=O)Nc2cnccc2C(=O)Nc2cccc3ccccc23)cc1`, the half-life is 5.6 min. The compound `Cc1cnc(NC(=O)c2ccc(-c3cccc([N+](=O)[O-])c3)o2)s1` gave a half-life of 10 min.

Turning to `O=C(Nc1cccnc1)c1cccs1`, the half-life is above 30 min. The compound `O=c1c(O)c(-c2ccc(O)cc2)oc2cc(O)cc(O)c12` gave a half-life of 6.13 min.

Turning to `COc1cccc(C(=O)Nc2ccc([S+](=O)([O-])Nc3nccs3)cc2)c1O`, the half-life is above 30 min. Compound `CCc1ccc2oc(NC3=NC(c4[nH]ncc4Cl)C4=C(CCCC4=O)N3)nc2c1` (configuration not stated) had a half-life of 22 min. `Cc1ccnc(C)c1C(=O)Nc1cccc([S+](=O)([O-])N(C)C)c1`: the half-life is above 30 min.

With `COc1ccc(-c2csc(N3CCC(C(N)=O)CC3)n2)cc1OC`, the half-life is above 30 min. The value for `Cc1noc(C)c1-c1cc2c(cc(C)n2C)c(-c2cnn(C)c2)n1` was above 30 min; that for `C#CCNC(=O)c1nc(-c2cccnc2)c2ccccn12` was 14.8 min.

In turn, `COc1ccc2c(c1)CCc1c-2n[nH]c1C(=O)N1CCc2c(nc3cc(-c4ccccc4)[nH]n3c2=O)C1` registered a half-life of 27.3 min. In turn, `CN1Cc2c(cc(N3CCOCC3)nc2-c2ccccc2OC(F)(F)F)C1=O` registered a half-life above 30 min. Next, `Fc1cnc(-c2ccccc2C(F)F)nc1NCc1ccc(-c2cccnc2)cc1`: 7.1 min.
